Experimental data taken from patent US11304943B2, “Combination for use in the treatment of lung cancer” (LDN Pharma Limited, priority 2017, dated 2022).

Tests used:
[1] = system: HCT116 (colorectal cancer) cells; experiment: Cell counting with trypan blue (cell number / cytostasis and cell viability) in HCT116 cells; type: cell-based; conditions: 48 hours
A549 (lung cancer) cells = experiment: Cell counting with trypan blue (cell number / cytostasis and cell viability) in A549 cells; type: cell-based
Description: The cytostatic effect upon administration of 6-β-naltrexol (6BN) and naltrexone (NTX) to A549 (lung cancer) and HCT116 (colorectal cancer) cells was studied in vitro. Firstly, A549 and HCT116 cells were seeded into 6-well plates at a density of 2×10^5/well and left to adhere overnight. Cells were then cultured with 0.001 μM, 0.01 μM, 0.1 μM or 1 μM of 6BN or NTX for 48 hours. Experiments were performed alongside a control where cells were not administered with 6-β-naltrexol or naltrexone (FIG. 1).
The viability of cells was then measured by cell counting using trypan blue as a way of discriminating live and dead cells. Cytostasis was indicated by a reduction in cell number and no associated reduction in cell viability.
Next, the effect of co-administration of low dose (10 nM) or high dose (10 μM) 6-β-naltrexol or naltrexone (NTX) alongside calcitriol was investigated. The cytostatic and cytotoxic effect was investigated in both A549 and HCT116 cells. A549 and HCT116 cells were seeded into 6-well plates at a density of 2×10^5/well and left to adhere overnight. The following day low or high dose 6BN or NTX was added to cells in isolation or in combination with calcitriol and incubated for 48 hours. A549 cells were co-administered with 10 nM calcitriol, whereas HCCT116 cells were co-administered 10 nM calcitriol.
Cell viability and cytostasis were then determined as described in example 1.

Q: `Oc1ccc2c3c1OC1[C@H](O)CC[C@@]4(O)[C@@H](C2)N(CC2CC2)CC[C@]314` (stereo partly drawn) [6-β-naltrexol, 17-(Cyclopropylmethyl)-4,5-epoxymorphinan-3,6beta,14-triol] was tested. Which “cytostasis (cell number) upon co-administration with calcitriol” value (“cytostasis … with calcitriol” for short) ([1]; HCT116 cells, 10 nM 6BN co-administered with calcitriol) did it give?
A: not observed

Q: What about the cell viability ([1]; HCT116 cells, 0.001-1 μM, trypan blue) of the same molecule?
A: No reduction in cell viability

Q: What about the “cytostasis (cell number)” value ([1]; HCT116 colorectal cancer cells, 0.001-1 μM, single agent, effect at higher concentrations) of the same molecule?
A: less pronounced decrease in cytotostasis

Q: And the “cytostasis … with calcitriol” value (A549 (lung cancer) cells; A549 cells, 10 nM 6BN co-administered with calcitriol, 48 hours)?
A: significant reduction in cytostasis

Q: What about the “cytostasis … with calcitriol” value (A549 (lung cancer) cells; A549 cells, 10 μM 6BN co-administered with calcitriol, 48 hours) of the same molecule?
A: not observed

Q: And the cell viability (A549 (lung cancer) cells; A549 cells, 0.001-1 μM, 48 hours, trypan blue)?
A: No reduction in cell viability

Q: What about the “cytostasis (cell number)” value (A549 (lung cancer) cells; A549 lung cancer cells, 0.001-1 μM, 48 hours, single agent) of the same molecule?
A: selective reduction in cytotostasis in lung cancer cells

Q: `C=C1/C(=C\C=C2/CCC[C@]3(C)[C@@H]([C@H](C)CCCC(C)(C)O)CC[C@@H]23)C[C@@H](O)C[C@@H]1O` [Calcitriol, calcitriol, reference compound] was tested. Which “cytostatic effect of calcitriol in isolation” value (A549 (lung cancer) cells; lung cancer cells, calcitriol administered in isolation) did it give?
A: no independent cytostatic effect

Q: Which “cell viability upon combination with calcitriol” value ([1]; HCT116 cells, 10 nM NTX with 100 nM calcitriol) does the source give for `O=C1CC[C@@]2(O)[C@H]3Cc4ccc(O)c5c4[C@@]2(CCN3CC2CC2)[C@H]1O5` [NTX, naltrexone, reference compound] here?
A: reduces the viability
